# From patent US20120142646A1, “Novel Compounds 621” (priority 2006, published 2012)
# Where a name gives a salt, the structure may show the parent alone.
# Molecular target: T1, Adrenergic β2 (Homo sapiens, UniProt P07550)
# T1 construct: Adherent H292 cells were removed from tissue culture flasks; endogenous in cells; host or cells: H292 cells
# Test: Adrenergic β2 mediated cAMP production in H292 cells (AlphaScreen cAMP detection)
# Format: cell-based
# Set-up: key to β2 Int Act: fraction of formoterol maximum activity (formoterol = 1)
# Conditions: Intrinsic Activity as a fraction relative to the maximum activity determined for formoterol
# Description: Adrenergic β2 Mediated cAMP Production
# H292 cells were grown in 225 cm2 flasks incubator at 37° C., 5% CO2 in RPMI medium containing, 10% (v/v) FBS (foetal bovine serum) and 2 mM L-glutamine.
# Adherent H292 cells were removed from tissue culture flasks by treatment with Accutase™ cell detachment solution for 15 minutes. Flasks were incubated for 15 minutes in a humidified incubator at 37° C., 5% CO2. Detached cells were re-suspended in RPMI media (containing 10% (v/v) FBS and 2 mM L-glutamine) at 1×10^6 cells per mL. 10000 cells in 100 μL were added to each well of a tissue-culture-treated 96-well plate and the cells incubated overnight in a humidified incubator at 37° C., 5% CO2. The culture media was removed and cells were washed twice with 100 μL assay buffer and replaced with 50 μL assay buffer (HBSS solution containing 10 mM HEPES pH7.4 and 5 mM glucose). Cells were rested at room temperature for 20 minutes after which time 25 μL of rolipram (1.2 mM made up in assay buffer containing 2.4% (v/v) dimethylsulphoxide) was added. Cells were incubated with rolipram for 10 minutes after which time test compounds were added and the cells were incubated for 60 minutes at room temperature. The final rolipram concentration in the assay was 300 μM and final vehicle concentration was 1.6% (v/v) dimethylsulphoxide. The reaction was stopped by removing supernatants, washing once with 100 μL assay buffer and replacing with 50 μL lysis buffer. The cell monolayer was frozen at −80° C. for 30 minutes (or overnight).
# AlphaScreen™ cAMP Detection
# The concentration of cAMP (cyclic adenosine monophosphate) in the cell lysate was determined using AlphaScreen™ methodology. The frozen cell plate was thawed for 20 minutes on a plate shaker then 10 μL of the cell lysate was transferred to a 96-well white plate. 40 μL of mixed AlphaScreen™ detection beads pre-incubated with biotinylated cAMP, was added to each well and the plate incubated at room temperature for 10 hours in the dark. The AlphaScreen™ signal was measured using an EnVision spectrophotometer (Perkin-Elmer Inc.) with the recommended manufacturer's settings. cAMP concentrations were determined by reference to a calibration curve determined in the same experiment using standard cAMP concentrations. Concentration response curves for agonists were constructed and data was fitted to a four parameter logistic equation to determine both the pEC50 and Intrinsic Activity. Intrinsic Activity was expressed as a fraction relative to the maximum activity determined for formoterol in each experiment.
# T1 sequence (P07550 whole entry): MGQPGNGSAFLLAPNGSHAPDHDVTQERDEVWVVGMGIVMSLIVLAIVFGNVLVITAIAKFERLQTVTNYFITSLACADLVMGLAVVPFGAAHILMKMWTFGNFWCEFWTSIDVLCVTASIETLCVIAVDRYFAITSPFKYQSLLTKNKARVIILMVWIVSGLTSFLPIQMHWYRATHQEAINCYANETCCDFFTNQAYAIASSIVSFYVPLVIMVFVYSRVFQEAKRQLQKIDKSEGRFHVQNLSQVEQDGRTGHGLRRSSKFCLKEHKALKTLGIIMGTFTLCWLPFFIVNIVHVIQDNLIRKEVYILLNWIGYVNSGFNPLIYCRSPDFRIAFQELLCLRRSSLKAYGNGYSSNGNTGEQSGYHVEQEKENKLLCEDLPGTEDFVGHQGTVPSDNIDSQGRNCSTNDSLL
row,β2 Int Act,Structure (SMILES)
1,0.89,"O=C1COc2c(CCNCCN(C(=O)CCNCCc3cccc(Cl)c3)C3CCCCC3)ccc(O)c2N1 [Example 27, 3-(3-Chlorophenethylamino)-N-cyclohexyl-N-(2-(2-(5-hydroxy-3-oxo-3,4-dihydro-2H-benzo[b][1,4]oxazin-8-yl)ethylamino)ethyl)propanamide bis(trifluoroacetate)]"
2,1.1,"O=C1COc2c(CCNCCN(C(=O)CCOCCc3ccccc3F)C3CCCCC3)ccc(O)c2N1 [Example 76, N-Cyclohexyl-3-(2-fluorophenethoxy)-N-(2-(2-(5-hydroxy-3-oxo-3,4-dihydro-2H-benzo[b][1,4]oxazin-8-yl)ethylamino)ethyl)propanamide trifluoroacetate]"
3,0.84,"C[C@H](C1CCCCC1)N(CCNCCc1ccc(O)c2c1OCC(=O)N2)C(=O)CCNCCc1ccccc1 [Example 61, (R)—N-(1-Cyclohexylethyl)-N-(2-(2-(5-hydroxy-3-oxo-3,4-dihydro-2H-benzo[b][1,4]oxazin-8-yl)ethylamino)ethyl)-3-(phenethylamino)propanamide bis(trifluoroacetate)]"
4,0.88,"O=C(CCNCCc1cc(F)cc(F)c1)N(CCNCCc1ccc(O)c2[nH]c(=O)ccc12)C1CCCCC1 [Example 15, N-Cyclohexyl-3-(3,5-difluorophenethylamino)-N-(2-(2-(8-hydroxy-2-oxo-1,2-dihydroquinolin-5-yl)ethylamino)ethyl)propanamide bis(trifluoroacetate)]"
5,0.85,"O=C1COc2c(CCNCCN(C(=O)CCNCCc3ccccc3)C3CCCCCC3)ccc(O)c2N1 [Example 24, N-Cycloheptyl-N-(2-(2-(5-hydroxy-3-oxo-3,4-dihydro-2H-benzo[b][1,4]oxazin-8-yl)ethylamino)ethyl)-3-(phenethylamino)propanamide bis(trifluoroacetate)]"
6,0.83,"O=CNc1cc(CCNCCN(C(=O)CCNCCc2ccccc2)C2CCCCC2)ccc1O [Example 21, N-Cyclohexyl-N-(2-(3-formamido-4-hydroxyphenethylamino)ethyl)-3-(phenethylamino)propanamide]"
7,0.88,"O=C(CCNCCc1ccc(Cl)cc1)N(CCNCCc1ccc(O)c2[nH]c(=O)ccc12)C1CCCCC1 [Example 14, 3-(4-Chlorophenethylamino)-N-cyclohexyl-N-(2-(2-(8-hydroxy-2-oxo-1,2-dihydroquinolin-5-yl)ethylamino)ethyl)propanamide bis(trifluoroacetate)]"
8,0.82,"O=C(CCNCCc1cccc(Cl)c1)N(CCNCCc1ccc(O)c2[nH]c(=O)ccc12)C1CCCCCC1 [Example 3, 3-(3-Chlorophenethylamino)-N-cycloheptyl-N-(2-(2-(8-hydroxy-2-oxo-1,2-dihydroquinolin-5-yl)ethylamino)ethyl)propanamide bis(trifluoroacetate)]"
9,0.96,"O=C1COc2c(CCNCCN(C(=O)CCOCCc3ccc(F)cc3)C3CCCCC3)ccc(O)c2N1 [Example 75, N-Cyclohexyl-3-(4-fluorophenethoxy)-N-(2-(2-(5-hydroxy-3-oxo-3,4-dihydro-2H-benzo[b][1,4]oxazin-8-yl)ethylamino)ethyl)propanamide trifluoroacetate]"
10,0.79,"Cc1cccc(CCNCCC(=O)N(CCNCCc2ccc(O)c3[nH]c(=O)ccc23)C2CCCCCC2)c1 [Example 8, N-Cycloheptyl-N-(2-(2-(8-hydroxy-2-oxo-1,2-dihydroquinolin-5-yl)ethylamino)ethyl)-3-(3-methylphenethylamino)propanamide bis(trifluoroacetate)]"
11,0.9,"O=C1COc2c(CCNCCN(C(=O)CCNCCc3ccc(F)c(F)c3)C3CCCCC3)ccc(O)c2N1 [Example 42, N-Cyclohexyl-3-(3,4-difluorophenethylamino)-N-(2-(2-(5-hydroxy-3-oxo-3,4-dihydro-2H-benzo[b][1,4]oxazin-8-yl)ethylamino)ethyl)propanamide bis(trifluoroacetate)]"
12,0.86,"Cc1cc(CCNCCC(=O)N(CCNCCc2ccc(O)c3c2OCC(=O)N3)C2CCCCCC2)ccc1F [Example 62, N-Cycloheptyl-3-(4-fluoro-3-methylphenethylamino)-N-(2-(2-(5-hydroxy-3-oxo-3,4-dihydro-2H-benzo[b][1,4]oxazin-8-yl)ethylamino)ethyl)propanamide bis(trifluoroacetate)]"
13,0.65,"O=C(CCNCCc1ccc(F)cc1)N(CCNCCc1ccc(O)c2[nH]c(=O)ccc12)C1CCCCCC1 [Example 6, N-Cycloheptyl-3-(4-fluorophenethylamino)-N-(2-(2-(8-hydroxy-2-oxo-1,2-dihydroquinolin-5-yl)ethylamino)ethyl)propanamide bis(trifluoroacetate)]"
14,0.95,"O=C(CCNCCc1cccc(F)c1F)N(CCNCCc1ccc(O)c2[nH]c(=O)ccc12)C1CCCCC1 [Example 18, N-Cyclohexyl-3-(2,3-difluorophenethylamino)-N-(2-(2-(8-hydroxy-2-oxo-1,2-dihydroquinolin-5-yl)ethylamino)ethyl)propanamide bis(trifluoroacetate)]"
15,0.99,"CCCC[C@@H](C)N(CCNCCc1ccc(O)c2c1OCC(=O)N2)C(=O)CCNCCc1cccc(F)c1F [Example 53, (R)-3-(2,3-Difluorophenethylamino)-N-(hexan-2-yl)-N-(2-(2-(5-hydroxy-3-oxo-3,4-dihydro-2H-benzo[b][1,4]oxazin-8-yl)ethylamino)ethyl)propanamide bis(trifluoroacetate)]"
16,0.97,"O=C1COc2c(CCNCCN(C(=O)CCNCCc3ccc(C(=O)O)cc3)C3CCCCC3)ccc(O)c2N1 [Example 43, 4-(2-(3-(Cyclohexyl(2-(2-(5-hydroxy-3-oxo-3,4-dihydro-2H-benzo[b][1,4]oxazin-8-yl)ethylamino)ethyl)amino)-3-oxopropylamino)ethyl)benzoic acid bis(trifluoroacetate)]"
17,0.96,"CCCC[C@@H](C)N(CCNCCc1ccc(O)c2c1OCC(=O)N2)C(=O)CCNCCc1cc(F)ccc1F [Example 54, (R)-3-(2,5-Difluorophenethylamino)-N-(hexan-2-yl)-N-(2-(2-(5-hydroxy-3-oxo-3,4-dihydro-2H-benzo[b][1,4]oxazin-8-yl)ethylamino)ethyl)propanamide bis(trifluoroacetate)]"
18,0.96,"Cc1cc(CCNCCC(=O)N(CCNCCc2ccc(O)c3c2OCC(=O)N3)C2CCCCC2)ccc1F [Example 40, N-Cyclohexyl-3-(4-fluoro-3-methylphenethylamino)-N-(2-(2-(5-hydroxy-3-oxo-3,4-dihydro-2H-benzo[b][1,4]oxazin-8-yl)ethylamino)ethyl)propanamide bis(trifluoroacetate)]"
19,0.9,"CCCC[C@@H](C)N(CCNCCc1ccc(O)c2c1OCC(=O)N2)C(=O)CCNCCc1ccccc1 [Example 25, (R)—N-(Hexan-2-yl)-N-(2-(2-(5-hydroxy-3-oxo-3,4-dihydro-2H-benzo[b][1,4]oxazin-8-yl)ethylamino)ethyl)-3-(phenethylamino)propanamide bis(trifluoroacetate)]"
20,0.97,"O=C1COc2c(CCNCCN(C(=O)CCOCCc3cccc(F)c3)C3CCCCC3)ccc(O)c2N1 [Example 74, N-Cyclohexyl-3-(3-fluorophenethoxy)-N-(2-(2-(5-hydroxy-3-oxo-3,4-dihydro-2H-benzo[b][1,4]oxazin-8-yl)ethylamino)ethyl)propanamide trifluoroacetate]"

row,Structure (SMILES),β2 Int Act
1,"O=C1Cc2c(CCNCCN(C(=O)CCNCCc3cccc(F)c3)C3CCCCC3)ccc(O)c2N1 [Example 20, N-Cyclohexyl-3-(3-fluorophenethylamino)-N-(2-(2-(7-hydroxy-2-oxoindolin-4-yl)ethylamino)ethyl)propanamide dihydrobromide]",0.78
2,"CCCC[C@@H](C)N(CCNCCc1ccc(O)c2c1OCC(=O)N2)C(=O)CCNCCc1cc(F)ccc1C [Example 57, (R)-3-(5-Fluoro-2-methylphenethylamino)-N-(hexan-2-yl)-N-(2-(2-(5-hydroxy-3-oxo-3,4-dihydro-2H-benzo[b][1,4]oxazin-8-yl)ethylamino)ethyl)propanamide bis(trifluoroacetate)]",0.91
3,"O=C1COc2c(CCNCCN(C(=O)CCNCCc3ccc(Cl)c(Cl)c3)C3CCCCC3)ccc(O)c2N1 [Example 30, N-Cyclohexyl-3-(3,4-dichlorophenethylamino)-N-(2-(2-(5-hydroxy-3-oxo-3,4-dihydro-2H-benzo[b][1,4]oxazin-8-yl)ethylamino)ethyl)propanamide bis(trifluoroacetate)]",0.92
